Experimental data as given in ChEMBL document CHEMBL1201862, “PubChem BioAssay data set” (2004).
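The compound was tested at five concentrations on cells cultured in 96-well plates, with a 48-hour exposure period. Here, GI50 denotes the concentration required for 50% inhibition of growth.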 Active and inactive are the calls of the source. Rule as the data show it: active = GI50 up to about 1.1 µM and inactive = higher.

Columns and labels:
Assay in all cases: NCI-60 cell line screen, 48 h
SK-MEL-5 = system: SK-MEL-5
OVCAR-3 = system: OVCAR-3
RXF 393 = system: RXF 393
MDA-MB-435 = system: MDA-MB-435
SK-OV-3 = system: SK-OV-3
TK-10 = system: TK-10
NCI-H522 = system: NCI-H522
SF-268 = system: SF-268
T47D = system: T47D
SF-539 = system: SF-539
HT-29 = system: HT-29
HOP-62 = system: HOP-62
MDA-MB-231 = system: MDA-MB-231
LOX IMVI = system: LOX IMVI
SN12C = system: SN12C
IGROV-1 = system: IGROV-1
KM12 = system: KM12
M14 = system: M14
NCI-H226 = system: NCI-H226
UO-31 = system: UO-31
SK-MEL-2 = system: SK-MEL-2
UACC-257 = system: UACC-257
NCI-H23 = system: NCI-H23
SR = system: SR
K562 = system: K562
OVCAR-4 = system: OVCAR-4
HCC 2998 = system: HCC 2998
A498 = system: A498
HCT-116 = system: HCT-116
U-251 = system: U-251
COLO 205 = system: COLO 205
SW-620 = system: SW-620
NCI-H460 = system: NCI-H460
OVCAR-8 = system: OVCAR-8
PC-3 = system: PC-3
CCRF-CEM = system: CCRF-CEM
SF-295 = system: SF-295
MDA-N = system: MDA-N
NCI/ADR-RES = system: NCI/ADR-RES
HCT-15 = system: HCT-15
ACHN = system: ACHN
SNB-19 = system: SNB-19
UACC-62 = system: UACC-62
HL-60 = system: HL-60
MOLT-4 = system: MOLT-4
DU-145 = system: DU-145
CAKI-1 = system: CAKI-1
EKVX = system: EKVX
HOP-92 = system: HOP-92
SNB-75 = system: SNB-75
Malme-3M = system: Malme-3M
MCF7 = system: MCF7
A549 = system: A549
SK-MEL-28 = system: SK-MEL-28
RPMI-8226 = system: RPMI-8226
OVCAR-5 = system: OVCAR-5
786-0 = system: 786-0
Hs-578T = system: Hs-578T

## N#Cc1c(N)nc2c3c1NC(=O)C(C(N)=O)C3c1ccccc1O2 (stereo unspecified)
SK-MEL-5
  GI50: > 100 µM (inactive)
OVCAR-3
  GI50: > 100 µM (inactive)
RXF 393
  GI50: 75.2 µM (inactive)
MDA-MB-435
  GI50: > 100 µM (inactive)
SK-OV-3
  GI50: > 100 µM (inactive)
TK-10
  GI50: > 100 µM (inactive)
NCI-H522
  GI50: 22.1 µM (inactive)
SF-268
  GI50: 26.2 µM (inactive)
T47D
  GI50: 95.9 µM (inactive)
SF-539
  GI50: 74 µM (inactive)
HT-29
  GI50: > 100 µM (inactive)
HOP-62
  GI50: 60.8 µM (inactive)
MDA-MB-231
  GI50: 28.6 µM (inactive)
LOX IMVI
  GI50: > 100 µM (inactive)
SN12C
  GI50: > 100 µM (inactive)
IGROV-1
  GI50: 17.3 µM (inactive)
KM12
  GI50: > 100 µM (inactive)
M14
  GI50: > 100 µM (inactive)
NCI-H226
  GI50: > 100 µM (inactive)
UO-31
  GI50: > 100 µM (inactive)
SK-MEL-2
  GI50: > 100 µM (inactive)
UACC-257
  GI50: > 100 µM (inactive)
NCI-H23
  GI50: 71.8 µM (inactive)
SR
  GI50: 62.5 µM (inactive)
K562
  GI50: > 100 µM (inactive)
OVCAR-4
  GI50: 95.5 µM (inactive)
HCC 2998
  GI50: > 100 µM (inactive)
A498
  GI50: > 100 µM (inactive)
HCT-116
  GI50: > 100 µM (inactive)
U-251
  GI50: > 100 µM (inactive)
COLO 205
  GI50: > 100 µM (inactive)
SW-620
  GI50: > 100 µM (inactive)
NCI-H460
  GI50: > 100 µM (inactive)
OVCAR-8
  GI50: 42.5 µM (inactive)
PC-3
  GI50: > 100 µM (inactive)
CCRF-CEM
  GI50: 81.1 µM (inactive)
SF-295
  GI50: 32.1 µM (inactive)
MDA-N
  GI50: > 100 µM (inactive)
NCI/ADR-RES
  GI50: > 100 µM (inactive)
HCT-15
  GI50: > 100 µM
ACHN
  GI50: > 100 µM (inactive)
SNB-19
  GI50: 47.9 µM (inactive)
UACC-62
  GI50: 27.5 µM (inactive)
HL-60
  GI50: 99.3 µM (inactive)
MOLT-4
  GI50: > 100 µM (inactive)
DU-145
  GI50: 67.6 µM (inactive)
CAKI-1
  GI50: > 100 µM (inactive)
EKVX
  GI50: 37.3 µM (inactive)
HOP-92
  GI50: 12.9 µM (inactive)
SNB-75
  GI50: 54.7 µM (inactive)
Malme-3M
  GI50: > 100 µM (inactive)
MCF7
  GI50: > 100 µM (inactive)
A549
  GI50: > 100 µM (inactive)
SK-MEL-28
  GI50: > 100 µM (inactive)
RPMI-8226
  GI50: 63 µM (inactive)
OVCAR-5
  GI50: > 100 µM (inactive)
786-0
  GI50: 37.9 µM (inactive)

## Cc1cccc(C(O)c2ccncc2)c1O (stereo unspecified)
SK-MEL-5
  GI50: > 100 µM (inactive)
OVCAR-3
  GI50: > 100 µM (inactive)
RXF 393
  GI50: 91.6 µM (inactive)
NCI-H522
  GI50: > 100 µM (inactive)
SF-268
  GI50: > 100 µM (inactive)
T47D
  GI50: 12.6 µM (inactive)
SF-539
  GI50: > 100 µM (inactive)
HOP-62
  GI50: > 100 µM (inactive)
LOX IMVI
  GI50: > 100 µM (inactive)
SN12C
  GI50: > 100 µM (inactive)
KM12
  GI50: > 100 µM (inactive)
M14
  GI50: > 100 µM (inactive)
NCI-H226
  GI50: > 100 µM (inactive)
UO-31
  GI50: > 100 µM (inactive)
UACC-257
  GI50: > 100 µM (inactive)
NCI-H23
  GI50: > 100 µM (inactive)
K562
  GI50: > 100 µM (inactive)
HCC 2998
  GI50: > 100 µM (inactive)
HCT-116
  GI50: > 100 µM (inactive)
U-251
  GI50: > 100 µM (inactive)
OVCAR-8
  GI50: > 100 µM (inactive)
PC-3
  GI50: > 100 µM (inactive)
CCRF-CEM
  GI50: > 100 µM (inactive)
SF-295
  GI50: > 100 µM (inactive)
NCI/ADR-RES
  GI50: > 100 µM (inactive)
HCT-15
  GI50: > 100 µM
ACHN
  GI50: > 100 µM (inactive)
SNB-19
  GI50: > 100 µM (inactive)
UACC-62
  GI50: 25.8 µM (inactive)
HL-60
  GI50: > 100 µM (inactive)
MOLT-4
  GI50: > 100 µM (inactive)
DU-145
  GI50: > 100 µM (inactive)
EKVX
  GI50: > 100 µM (inactive)
SNB-75
  GI50: 76.6 µM (inactive)
A549
  GI50: > 100 µM (inactive)
Hs-578T
  GI50: > 100 µM (inactive)

## O=C(Nc1ccccn1)/C(=C\C(=O)c1ccc(Cl)cc1)Nc1ccccc1
SK-MEL-5
  GI50: > 10 µM (inactive)
RXF 393
  GI50: > 10 µM (inactive)
MDA-MB-435
  GI50: > 10 µM (inactive)
SK-OV-3
  GI50: > 10 µM (inactive)
TK-10
  GI50: > 10 µM (inactive)
SF-268
  GI50: > 10 µM (inactive)
T47D
  GI50: > 10 µM (inactive)
HT-29
  GI50: > 10 µM (inactive)
HOP-62
  GI50: > 10 µM (inactive)
MDA-MB-231
  GI50: > 10 µM (inactive)
LOX IMVI
  GI50: > 10 µM (inactive)
SN12C
  GI50: > 10 µM (inactive)
IGROV-1
  GI50: > 10 µM (inactive)
KM12
  GI50: > 10 µM (inactive)
M14
  GI50: > 10 µM (inactive)
UACC-257
  GI50: > 10 µM (inactive)
NCI-H23
  GI50: > 10 µM (inactive)
SR
  GI50: > 10 µM (inactive)
K562
  GI50: > 10 µM (inactive)
OVCAR-4
  GI50: > 10 µM (inactive)
HCC 2998
  GI50: > 10 µM (inactive)
COLO 205
  GI50: > 10 µM (inactive)
SW-620
  GI50: > 10 µM (inactive)
OVCAR-8
  GI50: > 10 µM (inactive)
PC-3
  GI50: > 10 µM (inactive)
CCRF-CEM
  GI50: > 10 µM (inactive)
SF-295
  GI50: > 10 µM (inactive)
MDA-N
  GI50: > 10 µM (inactive)
HCT-15
  GI50: > 10 µM
UACC-62
  GI50: > 10 µM (inactive)
HL-60
  GI50: > 10 µM (inactive)
MOLT-4
  GI50: > 10 µM (inactive)
DU-145
  GI50: > 10 µM (inactive)
CAKI-1
  GI50: > 10 µM (inactive)
EKVX
  GI50: > 10 µM (inactive)
HOP-92
  GI50: > 10 µM (inactive)
SNB-75
  GI50: 5.68 µM (inactive)
Malme-3M
  GI50: > 10 µM (inactive)
MCF7
  GI50: > 10 µM (inactive)
A549
  GI50: > 10 µM (inactive)
SK-MEL-28
  GI50: > 10 µM (inactive)
RPMI-8226
  GI50: > 10 µM (inactive)
786-0
  GI50: 7.16 µM (inactive)
